The values below come from US6143769A, “Phenylacetic acid benzylamides” (Karl Thomae GmbH, priority 1983, dated 2000).

Molecules are shown by their SMILES. Like-named read-outs stand apart in the source and are kept apart here.

One data set deals with blood glucose. Briefly: Test for hypoglycemic activity in fasted female rats (oral). Format: in vivo. The note with it: Rattus norvegicus, po, read-out: Change in glucose content compared with control. The procedure:
Blood samples were taken immediately before the administration of the test compound and 1, 2, 3 and 4 hours afterwards, in each case from the retroorbital Venous plexus. 50 μl of each sample were deproteinated with 0.5 ml of 0.33 N perchloric acid and centrifuged. The glucose in the supernatant fluid was measured using the hexokinase method with the aid of an analytical photometer. The statistical evaluation was made using the t-test according to Student with p=0.05 as the limit of significance.

Data set [1] has as its system mice. Description: Acute toxicity of compound N, single oral dose, mice. Format: in vivo. The note with it: 14 days. As for the experimental part: The toxic effect of a single dose of compound N administered orally (suspended in 1% methyl cellulose) was tested in male and female mice of our own strain weighing from 20-26 g over an observation period of 14 days.
In another data set the test system is blood sugar. Description: Blood sugar-lowering effect of the enantiomers in fasted female rats (oral). Type of data set: in vivo. The settings on record: 1.0 mg/kg p.o. The procedure: The substances to be investigated were suspended in 1.5% methylcellulose immediately before the start of the test and administered into the oesophagus. […] Glucose was measured in the supernatant by the hexokinase method using an analytical photometer. The statistical evaluation was carried out using the Student's t-test with p=0.05 as the limit of significance. Table 1 which follows contains the statistically significant values as percentage deviations from the control: […]

A further data set is described as follows: clinical. The settings on record: human, plasma, 1 mg.
Data set [2] has as its system mice. Briefly: Acute toxicity, single oral dose 2,000 mg/kg, mice. Format: in vivo. The settings on record: 2,000 mg/kg p.o., 5 male and 5 female mice, 14 days.

Description for clinical: More specifically, the studies which follow were carried out on healthy male volunteers in whom the levels of glucose and active substance in the course of time were determined:
In the interests of more precise clarification, study 5 was carried out (randomised, open, crossover). […] 2 hours after administration a standard breakfast (B) was eaten, 5 hours after administration a standard lunch (L) was eaten and 10 hours after administration a standard dinner (D) was eaten. Blood samples were taken at different times. The glucose concentrations were measured in the plasma as in study 1. […] The plasma concentrations of AG-EE 624 ZW were calculated as the difference between the two concentrations found:

As to `CCOc1cc(CC(=O)NC(CC(C)C)c2ccccc2N2CCCCC2)ccc1C(=O)O` (racemic) [N, 2-ethoxy-4-[N-{1-(2-piperidino-phenyl)-3-methyl-1-butyl}-aminocarbonylmethyl]-benzoic acids], the change in vivo at 0.1 mg/kg is -38% in the data set with blood glucose (1 h), -44% in the data set with blood glucose (2 h), -41% in the data set with blood glucose (3 h) and -40% with blood glucose (4 h). In addition, the Deaths in the data set with mice [1] (1000 mg/kg p.o.) is listed as 0 out of 6 animals died. Also, the Approximate acute toxicity in the data set with mice [1] (p.o.) is reported as above 1000 mg/kg.

Regarding `CCOc1cc(CC(=O)N[C@H](CC(C)C)c2ccccc2N2CCCCC2)ccc1C(=O)O` [AG-EE 624 ZW, (R)(-)-2-ethoxy-4-[N-[1-(2-piperidino-phenyl)-3-methyl-1-butyl]aminocarbonylmethyl]-benzoic acid], the “Glucose, percentage deviation from control” value with blood sugar (1 h), in the data set on blood sugar (2 h), in the data set on blood sugar (3 h) and in the data set with blood sugar (4 h) was “n.s” throughout. In addition, the MRT in the data set “clinical” (iv) came out at 3.3 ± 1.7 h. The same molecule yielded a clearance in the data set “clinical” (iv) of 75 ± 34 mL/min. This molecule also returned a bioavailability in “clinical” (po) of 83 ± 32%.

With `CCOc1cc(CC(=O)NC(c2ccccc2)c2ccccc2N2CCCCC2)ccc1C(=O)O` (stereo not drawn) [D, 2-ethoxy-4-[N-(α-phenyl-2-piperidino-benzyl)-aminocarbonylmethyl]-benzoic acid], the change in vivo at 1 mg/kg was -42% with blood glucose (1 h), -54% in the data set on blood glucose (2 h), -37% in the data set on blood glucose (3 h) and -34% with blood glucose (4 h). Also, the Deaths result with mice [2] is “only one animal in this group died”.

For orientation: MRT means a mean duration of stay, worked out from the concentration-time curve. As a reminder, the clearance is the volume of plasma or blood freed of the substance per unit of time. What is called bioavailability is the share of a dose that reaches the circulation, judged against a reference dose that is usually intravenous. The low end stands for little systemic uptake, the high end for much systemic uptake.
